Assay results published in patent EP2093222A1, “Polyisoprenoid epoxides useful for decreasing cholesterol and/or increasing coenzyme Q biosynthesis” (NEWBIOTECHNIC, S.A., priority 2008, dated 2009).

Key:
HepG2 cells [1] = assay: Biosynthesis of cholesterol and CoQ by HepG2 cells: incorporation of [3H]mevalonate, lipid extraction, HPLC with on-line detection of radioactivity; assay type: cell-based, human; details: for Coenzyme Q10: labeling of CoQ
Protocol: (§1) Human hepatoblastoma (HepG2) cells (cell line derived from a human liver cancer that contains primarily CoQ with a decaprenyl side-chain available in ATCC (Cat. No. HB-8065), obtained from LGC Prochem, UK) were cultured in 10 ml DMEM medium (Invitrogen) containing 1 g glucose per 100 ml, 10% fetal bovine serum, penicillin (100 units per ml) and streptomycin ([…]). When 70% confluency was reached, the medium was changed and the compounds to be investigated added in 50-100 µl dimethylsulfoxide to give a final concentration of 2 µM or in the case of tocotrienols 5 µM. Twenty-four hours later, 0.5 mCi [^3H]mevalonate (3.25 Ci/mmol) was added and incubation continued for an additional 8 hours. When the substrate was [^3H]lanosterol (0.28 Ci/mmol) the amount added was 5 µCi. Finally, the cells were harvested by trypsinisation and stored at -20° C for later analysis.
(§2) Lipids were extracted from cells with chloroform:methanol:water (1:1:0.3), at 37°C for 1 hr with magnetic stirring (Ericsson, J., Runquist, M., Thelin, A., Andersson, M., Chojnacki, T., and Dallner, G. (1993) J Biol Chem 268(2), 832-838). The extracts thus obtained were adjusted to achieve a final chloroform:methanol:water ratio of 3:2:1 and complete phase separation then accomplished by centrifugation. The lower chloroform phase was removed and evaporated to dryness under a flow of nitrogen and the residue subsequently re-dissolved in chloroform. These solutions were placed onto a silica column (50 mg/1.5 ml; Extract-Clean, Alltech, Deerfield, IL) and thereafter eluted with 6 ml chloroform. After evaporation of the solvents, the neutral lipids were dissolved in chloroform:methanol (2:1).
(§3) For analysis of cholesterol, cholesterol metabolites, squalene, and CoQ, the samples were subjected to reversed-phase HPLC using a Supelcosil LC-18 column (3 µm, 4.0 x 75 mm) equipped with an LC-18 Supelguard (Supelco) column (Ericsson, J., Thelin, A., Chojnacki, T., and Dallner, G. (1992) J Biol Chem 267(27), 19730-19735). For separation, a stepwise gradient involving methanol:water (9:1) in pump system A and methanol:2-propanol:hexane (2:1:1) in pump system B was employed at a flow rate of 1.1 ml/min. The gradient began at 15% solvent B, with increases to 47% after 8 min, 67% after 16 min and 100% after 24 min. The lipids in the eluent were monitored at 210 nm and 275 nm with a UV detector and labeling of radioactive products was measured with on-line detector of radioactivity. Ergosterol and CoQ6 were used as internal standards.

HepG2 cells [2] = assay: Biosynthesis of cholesterol from [3H]lanosterol in the presence of inhibitors; assay type: cell-based, human; details: for Cholesterol: 2 µM tetraepoxysolanesol or ketoconazole or 0.2 µM RO 48-8071, 24 hrs, then [3H]lanosterol 8 hrs, means ± SE of 3 experiments; for cholesterol synthesis with [3H]lanosterol as precursor: result in words
Protocol: as §1, §2, §3

HepG2 cells [3] = assay: Biosynthesis of cholesterol and CoQ by HepG2 cells: incorporation of [3H]mevalonate, lipid extraction, HPLC with on-line detection of radioactivity; assay type: cell-based; details: Homo sapiens, [3H]mevalonate incorporation into cholesterol, read-out: inhibition (reduction) of cholesterol synthesis
[4] = 2 µM, 24 hours, then [3H]mevalonate for 8 hours, means ± SD (n = 4)
[5] = 2 µM, 24 hours, then [3H]mevalonate for 8 hours, labeling of cholesterol, means ± SD (n = 4)
[6] = 2 µM tetraepoxysolanesol or ketoconazole or 0.2 µM RO 48-8071, 24 hrs, then [3H]mevalonate 8 hrs, means ± SE
[7] = 2 µM tetraepoxysolanesol or ketoconazole or 0.2 µM RO 48-8071, 24 hrs, then [3H]mevalonate 8 hrs, means ± SE, n.d. = not detectable

Compound | Coenzyme Q10 (HepG2 cells [1]; [4]) | Cholesterol (HepG2 cells [1]; [5]) | further results
Solanesyl-acetate | 145 ± 18 % of control | 4 ± 2 % of control | 
CC(C)=CCC/C(C)=C/CC/C(C)=C/CC/C(C)=C/CO [Geranylgeraniol] | 107 ± 11 % of control | 102 ± 5 % of control | 
CC(C)=CCC/C(C)=C/CC/C(C)=C/CO [Farnesol] | 100 ± 4 % of control | 101 ± 3 % of control | 
CC(=O)N1CCN(c2ccc(OCC3COC(Cn4ccnc4)(c4ccc(Cl)cc4Cl)O3)cc2)CC1 (centres unmarked) [Ketoconazole, reference compound] |  |  | Cholesterol (HepG2 cells [2]): 1.3 ± 0.3 cpm/pg protein; cholesterol synthesis with [3H]lanosterol as precursor (HepG2 cells [2]): inhibited; CQ10 (HepG2 cells [1]; [6]): 2.4 ± 0.3 cpm/pg protein; Cholesterol (HepG2 cells [1]; [7]): 25 ± 4 cpm/pg protein; Lanosterol (HepG2 cells [1]; [7]): 58 ± 16 cpm/pg protein
Vitamin K2 | 127 ± 18 % of control | 67 ± 7 % of control | inhibition (reduction) of cholesterol synthesis (HepG2 cells [1]; 2 µM, [3H]mevalonate incorporation into cholesterol): 33%; elevation (stimulation) of CoQ synthesis (HepG2 cells [1]; 2 µM, [3H]mevalonate labeling of CoQ): 27%
Solanesol | 138 ± 14 % of control | 3 ± 1 % of control | 
CC(=O)OC/C=C(\C)CC/C=C(\C)CC/C=C(\C)CCC=C(C)C [Geranylgeranyl-acetate] | 109 ± 12 % of control | 102 ± 4 % of control | 
C=CCN(C)CCCCCCOc1ccc(C(=O)c2ccc(Br)cc2)c(F)c1 [RO 48-8071, reference compound] |  |  | Cholesterol (HepG2 cells [2]): 10.1 ± 1.2 cpm/pg protein; cholesterol synthesis with [3H]lanosterol as precursor (HepG2 cells [2]): neither tetraepoxysolanesol or RO 48-8071 inhibited; CQ10 (HepG2 cells [1]; [6]): 2.1 ± 0.2 cpm/pg protein; 2,3-Oxido squalene (HepG2 cells [1]; [7]): 91 ± 10 cpm/pg protein; 2,3:22,23-Dioxidosqualene (HepG2 cells [1]; [7]): 108 ± 22 cpm/pg protein
CC(C)=CCC/C(C)=C/CC/C(C)=C/CC/C=C(\C)CC/C=C(\C)CCC=C(C)C [Squalene] | 111 ± 8 % of control | 30 ± 5 % of control | inhibition at 2 µM (HepG2 cells [3]): 70%
Farnesyl-acetate | 105 ± 8 % of control | 103 ± 4 % of control | 
